# Experimental data from patent publication US20100136034A1, “NOVEL MULTIMERIC MOLECULES, A PROCESS FOR PREPARING THE SAME AND THE USE THEREOF FOR MANUFACTURING MEDICINAL DRUGS” (CENTRE NATIONAL DE LA RECHERCHE SCIENTIFIQUE, priority 2007, published 2010).
# Non-standard residues stand in square brackets, D forms with d. No end group written: not given here. Ahx = NCCCCCC(=O)O
# Key:
# [1] = test system: Burkitt's lymphoma RAJI cells; assay: Induction of apoptosis in Burkitt's lymphoma RAJI cells (drop in mitochondrial transmembrane potential, DiOC6(3), flow cytometry); type: cell-based; conditions: 16 hours incubation with CD40L analog, FIG. 5A
# Experimental: Burkitt's lymphoma (RAJI) was cultured in RPMI 1640 medium (Cambrex Bioscience, Verviers, Belgium) supplemented with 10% decomplemented foetal calf serum (FBS) and gentamycin (10 μg/ml). For assaying apoptosis, cells (1×10^6/ml) were incubated at 37° C. in 96-well plates, at the specified concentrations of CD40L analogs, in a final volume of 200 μl. After incubation for 16 hours, cell apoptosis was measured as described herein below.
# To this end, cells were pulsed with DiOC6(3) (Interchim, Montluçon, France)) at a final concentration of 40 nM for the last 45 minutes of culturing.
# Cells were subsequently washed, resuspended in 300 μl of PBS and analyzed by flow cytometry. Results (FIG. 5A) are expressed in percentage of specific apoptosis according the following formula: % of specific apoptosis=[(% of dead treated cells−% of dead control cells)×100]/(100−% de dead control cells).
# Cells were analyzed by a FACSCalibur® instrument. At least 25000 pulse is events were acquired for each experiment using the CellQuest 3.3 software (Becton Dickinson, Pont de Claix, France) and data were analyzed using the WinMDI 2.8 software (Joseph Trotter, Scripps Research Institute, http://facs.scripps.edu/software.html).
# murine spleen B cells = assay: Spleen B cell proliferation ([3H]-thymidine uptake); type: cell-based, BALB/c mice; conditions: ligand alone, without anti-CD40 antibody 3/23; 72 hours; FIG. 5B
# Experimental: Spleens were surgically removed from BALB/c mice aged from 5 to 12 weeks. Spleen B cells were prepared by positive selection using magnetic beads coated with monoclonal anti-CD19 antibodies (MACS, Milteny biotech, Germany). This fraction contains over 95% of B220^+ cells. B cells (3×10^6/ml) were next cultured in RPMI 1640 medium supplemented with 10% complement depleted FBS, gentamycin (10 μg/ml), 25 mM HEPES and […] β-mercaptoethanol in presence of CD40L analogs. Cells were pulsed with 1 μCi/well of tritiated thymidine (ICN, Irvine, Calif.) for the last 20 hours of culturing and the uptake of [^3H]-thymidine as expressed in cpm was measured after 72 hours using a Matrix 9600 model direct 13 counter (Packard, Meriden, Conn.). Results (FIG. 5B) are expressed as a stimulation index corresponding to cpm obtained for cultures with CD40L analogs divided by cpm obtained for cultures without CD40L analogs. Mice used in this study were raised in our animal housing facilities which are licensed by the french veterinary administration under number D-67-482-2.
substance,measurement,setting,value
"L41: dimeric ligand by click chemistry: dimerized macrocycle IV.25 coupled to pentapeptide P1 (Lys-Gly-Tyr-Tyr-Ahx), deprotected (peptide KGYY[Ahx]; chain AKKKAK; also: dimerized macrocycle IV.25 (cyclised hexapeptide) joined by click chemistry (triazole) to pentapeptide P1 (Lys-Gly-Tyr-Tyr-Ahx), D-residues and non-natural residues not placed)",percentage of specific apoptosis,[1],induces a Burkitt lymphoma (RAJI) specific apoptosis percentage
same,"B cell proliferation (stimulation index, [3H]-thymidine uptake)",murine spleen B cells,induces alone murine spleen B cell proliferation
